The source of these data is paper PMC11116522, “Illuminating the function of the orphan transporter, SLC22A10, in humans and other primates” (Nature Communications, 2024).

A word on the Km: it is the substrate concentration at which the rate is half of its maximum.

Data set [1] addresses T1, squirrel monkey SLC22A10 (552 aa) (Saimiri boliviensis, UniProt A0A2K6SBP5).
T1 construct: full length 552 aa, synthetic cDNA, HEK293 Flp-In cells
T1 sequence (A0A2K6SBP5 1-552): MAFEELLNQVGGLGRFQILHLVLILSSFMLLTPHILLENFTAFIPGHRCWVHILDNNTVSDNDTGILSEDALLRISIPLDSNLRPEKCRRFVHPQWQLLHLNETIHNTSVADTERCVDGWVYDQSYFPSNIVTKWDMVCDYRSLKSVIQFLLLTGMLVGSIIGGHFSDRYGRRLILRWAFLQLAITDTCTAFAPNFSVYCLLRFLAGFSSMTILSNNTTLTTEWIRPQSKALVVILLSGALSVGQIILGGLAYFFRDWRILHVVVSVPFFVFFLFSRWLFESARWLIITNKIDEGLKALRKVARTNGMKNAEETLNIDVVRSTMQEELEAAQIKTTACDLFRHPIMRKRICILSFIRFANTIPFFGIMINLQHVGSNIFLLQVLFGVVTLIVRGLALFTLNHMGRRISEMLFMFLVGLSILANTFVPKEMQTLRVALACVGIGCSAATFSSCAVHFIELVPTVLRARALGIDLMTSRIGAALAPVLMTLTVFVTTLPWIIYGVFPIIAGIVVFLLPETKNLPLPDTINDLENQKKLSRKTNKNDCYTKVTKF
Put plainly: radiolabelled uptake in HEK293 Flp-In cells. It is filed as cell-based. To be noted: labelled compound; HBSS.

Data set [2] concerns the target T2, orangutan SLC22A10 (533 aa) (Pongo abelii, UniProt A0A8I5UWR8).
T2 construct: full length 533 aa isoform, synthetic cDNA, HEK293 Flp-In cells
T2 sequence (A0A8I5UWR8 1-533): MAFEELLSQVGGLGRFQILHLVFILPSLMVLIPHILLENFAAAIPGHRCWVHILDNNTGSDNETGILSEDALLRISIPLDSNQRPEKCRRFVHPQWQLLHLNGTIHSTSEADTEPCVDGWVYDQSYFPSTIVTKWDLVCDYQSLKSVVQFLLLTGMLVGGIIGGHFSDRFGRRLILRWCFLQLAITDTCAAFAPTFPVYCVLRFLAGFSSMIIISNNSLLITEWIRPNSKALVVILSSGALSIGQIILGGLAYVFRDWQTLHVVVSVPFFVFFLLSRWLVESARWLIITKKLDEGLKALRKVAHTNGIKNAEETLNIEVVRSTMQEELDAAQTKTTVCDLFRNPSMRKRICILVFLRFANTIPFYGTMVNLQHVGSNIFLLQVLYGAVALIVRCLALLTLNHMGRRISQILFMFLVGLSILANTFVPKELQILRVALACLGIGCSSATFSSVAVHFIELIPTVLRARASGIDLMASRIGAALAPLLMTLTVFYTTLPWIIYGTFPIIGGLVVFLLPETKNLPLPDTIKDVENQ
Put plainly: radiolabelled uptake in HEK293 Flp-In cells. It is filed as cell-based. The following applies: labelled compound; HBSS.

Data set [3] concerns the target T3, gibbon SLC22A10 (533 aa) (Nomascus leucogenys, UniProt G1QWU8).
T3 construct: gene LOC100590002; full length 533 aa isoform, synthetic cDNA, HEK293 Flp-In cells
In words: radiolabelled uptake in HEK293 Flp-In cells. It is filed as cell-based. The following applies: labelled compound; HBSS.

Data set [4] addresses T4, chimpanzee SLC22A10 (533 aa) (Pan troglodytes, UniProt A0A2I3TWY5).
T4 sequence (A0A2I3TWY5 1-540): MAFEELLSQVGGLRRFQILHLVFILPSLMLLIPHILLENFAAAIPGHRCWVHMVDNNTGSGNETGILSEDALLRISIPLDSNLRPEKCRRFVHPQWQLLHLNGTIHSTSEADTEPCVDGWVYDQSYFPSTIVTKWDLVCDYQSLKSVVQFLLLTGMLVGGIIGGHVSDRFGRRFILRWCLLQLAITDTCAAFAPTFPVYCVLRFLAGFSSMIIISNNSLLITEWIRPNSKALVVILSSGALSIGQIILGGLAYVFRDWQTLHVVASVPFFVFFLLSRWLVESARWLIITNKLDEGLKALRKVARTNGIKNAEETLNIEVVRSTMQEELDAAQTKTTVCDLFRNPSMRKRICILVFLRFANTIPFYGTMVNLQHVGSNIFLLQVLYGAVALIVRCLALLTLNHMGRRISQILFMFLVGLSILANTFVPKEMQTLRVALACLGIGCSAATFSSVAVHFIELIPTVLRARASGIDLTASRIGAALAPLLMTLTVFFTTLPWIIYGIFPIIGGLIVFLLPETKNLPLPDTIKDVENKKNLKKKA
Put plainly: radiolabelled uptake in stable HEK293 Flp-In cells, Michaelis-Menten fit. It is filed as cell-based. To be noted: 37 °C, 5 min uptake, HBSS; empty-vector uptake subtracted; labelled compound.

Data set [5] deals with T5, human SLC22A10 (541 aa) (Homo sapiens, UniProt Q63ZE4, P220L).
T5 construct: full length 541 aa, pcDNA3.1(+) or N-terminal eGFP fusion, transient HEK293 Flp-In cells
T5 sequence (Q63ZE4 1-541 P220L): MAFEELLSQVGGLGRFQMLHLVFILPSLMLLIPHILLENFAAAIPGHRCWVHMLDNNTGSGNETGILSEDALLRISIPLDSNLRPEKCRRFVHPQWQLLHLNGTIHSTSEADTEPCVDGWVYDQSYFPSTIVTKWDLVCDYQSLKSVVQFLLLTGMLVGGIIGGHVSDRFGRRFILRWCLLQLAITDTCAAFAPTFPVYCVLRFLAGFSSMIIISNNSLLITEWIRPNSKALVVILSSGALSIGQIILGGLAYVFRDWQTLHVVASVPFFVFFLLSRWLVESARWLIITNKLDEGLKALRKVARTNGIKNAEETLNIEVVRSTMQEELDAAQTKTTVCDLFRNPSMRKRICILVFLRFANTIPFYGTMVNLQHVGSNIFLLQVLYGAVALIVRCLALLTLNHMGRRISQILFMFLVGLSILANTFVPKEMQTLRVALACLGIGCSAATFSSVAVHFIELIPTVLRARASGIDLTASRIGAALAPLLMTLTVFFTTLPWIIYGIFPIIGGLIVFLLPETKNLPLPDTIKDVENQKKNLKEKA
In words: radiolabelled uptake in transiently transfected HEK293 Flp-In cells. It is filed as cell-based. To be noted: labelled compound; HBSS.

Data set [6] has as its target T6, gorilla SLC22A10 (552 aa) (Gorilla gorilla, UniProt G3RG24).
T6 construct: full length 552 aa, synthetic cDNA, HEK293 Flp-In cells
In words: radiolabelled uptake in HEK293 Flp-In cells. It is filed as cell-based. The following applies: labelled compound; HBSS.

Substrate in data set [7]: C[C@]12CC[C@@H]3c4ccc(O)cc4CC[C@H]3[C@@H]1CC[C@@H]2O[C@@H]1O[C@H](C(=O)O)[C@@H](O)[C@H](O)[C@H]1O
In words: radiolabelled uptake in stable HEK293 Flp-In cells, Michaelis-Menten fit. To be noted: 37 °C, 5 min uptake, HBSS, empty-vector uptake subtracted, labelled compound. It is filed as cell-based, Pan troglodytes.

Structures can show the parent of a compound that is named as a salt.

T3 sequence (G1QWU8 1-533): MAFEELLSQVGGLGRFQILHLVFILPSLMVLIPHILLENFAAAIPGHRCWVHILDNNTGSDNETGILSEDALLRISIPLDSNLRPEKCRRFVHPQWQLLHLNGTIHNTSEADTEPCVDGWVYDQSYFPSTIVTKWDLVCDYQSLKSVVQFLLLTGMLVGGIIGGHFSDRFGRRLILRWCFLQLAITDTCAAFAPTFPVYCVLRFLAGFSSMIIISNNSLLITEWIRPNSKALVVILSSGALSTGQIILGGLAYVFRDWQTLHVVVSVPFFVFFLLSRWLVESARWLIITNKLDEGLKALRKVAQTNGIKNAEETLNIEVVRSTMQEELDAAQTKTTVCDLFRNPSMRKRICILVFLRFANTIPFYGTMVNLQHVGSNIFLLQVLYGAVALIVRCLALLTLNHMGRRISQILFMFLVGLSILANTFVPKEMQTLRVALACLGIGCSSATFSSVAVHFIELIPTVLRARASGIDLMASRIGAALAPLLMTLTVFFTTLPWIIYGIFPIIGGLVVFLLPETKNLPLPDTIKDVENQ
T6 sequence (G3RG24 entry or part of it): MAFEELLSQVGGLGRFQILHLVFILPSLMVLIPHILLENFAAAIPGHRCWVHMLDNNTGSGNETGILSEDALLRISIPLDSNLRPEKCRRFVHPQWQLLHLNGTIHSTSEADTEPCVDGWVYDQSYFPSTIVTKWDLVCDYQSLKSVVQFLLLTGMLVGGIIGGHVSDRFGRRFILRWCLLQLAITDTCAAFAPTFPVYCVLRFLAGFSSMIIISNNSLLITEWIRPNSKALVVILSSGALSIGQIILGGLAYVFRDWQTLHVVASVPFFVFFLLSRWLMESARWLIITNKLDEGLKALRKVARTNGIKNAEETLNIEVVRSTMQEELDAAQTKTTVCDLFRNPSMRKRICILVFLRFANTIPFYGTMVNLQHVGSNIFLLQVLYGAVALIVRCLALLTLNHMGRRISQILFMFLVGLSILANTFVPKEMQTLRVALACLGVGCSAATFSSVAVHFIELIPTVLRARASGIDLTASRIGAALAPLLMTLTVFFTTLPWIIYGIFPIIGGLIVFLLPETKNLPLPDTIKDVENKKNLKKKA

Take `C[C@]12CC[C@@H]3c4ccc(OS(=O)(=O)O)cc4CC[C@H]3[C@@H]1CCC2=O` [estrone sulfate]: the uptake entry in data set [1] is on record as “squirrel monkey, a New World monkey, preferred estrone sulfate over estradiol-17β- glucuronide”.
For `Nc1nc2ncc(CNc3ccc(C(=O)N[C@@H](CCC(=O)O)C(=O)O)cc3)nc2c(=O)[nH]1` [folic acid], the fold uptake result was “from chimpanzee, orangutan and gibbon accumulated [^3H]-estradiol-17β-glucuronide and [^3H]-folic acid” in data set [2]; “from chimpanzee, orangutan and gibbon accumulated [^3H]-estradiol-17β-glucuronide and [^3H]-folic acid” in data set [3].
With `C[C@]12CC[C@@H]3c4ccc(O)cc4CC[C@H]3[C@@H]1CC[C@@H]2O[C@@H]1O[C@H](C(=O)O)[C@@H](O)[C@H](O)[C@H]1O` [estradiol-17β-glucuronide], the Km in data set [4] is 3.28 ± 2.25 µM. The fold uptake entry in data set [2] was “from chimpanzee, orangutan and gibbon accumulated [^3H]-estradiol-17β-glucuronide and [^3H]-folic acid”; in data set [5] it was “resulting in substantial accumulation of the substrate, estradiol-17β-glucuronide”; in data set [6], “Significant accumulation of [^3H]-estradiol-17β-glucuronide and [^3H]-androstanediol-3α-glucuronide were observed in cells expressing”; in data set [3], “from chimpanzee, orangutan and gibbon accumulated [^3H]-estradiol-17β-glucuronide and [^3H]-folic acid”.

B1: chimpanzee SLC22A10 (552 aa) (Pan troglodytes) (protein)
chain: MAFEELLSQVGGLRRFQILHLVFILPSLMLLIPHILLENFAAAIPGHRCWVHMVDNNTGSGNETGILSEDALLRISIPLDSNLRPEKCRRFVHPQWQLLHLNGTIHSTSEADTEPCVDGWVYDQSYFPSTIVTKWDLVCDYQSLKSVVQFLLLTGMLVGGIIGGHVSDRFGRRFILRWCLLQLAITDTCAAFAPTFPVYCVLRFLAGFSSMIIISNNSLLITEWIRPNSKALVVILSSGALSIGQIILGGLAYVFRDWQTLHVVASVPFFVFFLLSRWLVESARWLIITNKLDEGLKALRKVARTNGIKNAEETLNIEVVRSTMQEELDAAQTKTTVCDLFRNPSMRKRICILVFLRFANTIPFYGTMVNLQHVGSNIFLLQVLYGAVALIVRCLALLTLNHMGRRISQILFMFLVGLSILANTFVPKEMQTLRVALACLGIGCSAATFSSVAVHFIELIPTVLRARASGIDLTASRIGAALAPLLMTLTVFFTTLPWIIYGIFPIIGGLIVFLLPETKNLPLPDTIKDVENQKKISRKRHKNDCYTKVTKF
Turning to B1, the Km in data set [7] is listed as 2.16 ± 0.59 µM.
